# Source: ChEMBL document CHEMBL1156828, “Pyridinylquinoxalines and pyridinylpyridopyrazines as lead compounds for novel p38 alpha mitogen-activated protein kinase inhibitors” (J Med Chem, 2010)
# What was measured:
# [1] = molecular target: T1, Mitogen-activated protein kinase 14 (Homo sapiens, UniProt Q16539); assay: Inhibition of p38alpha-mediated ATF2 phosphorylation in presence of ATP
# [2] = molecular target: T1, Mitogen-activated protein kinase 14; assay: Inhibition of p38alpha-mediated ATF2 phosphorylation at 10 uM in presence of ATP
# [3] = molecular target: Mitogen-activated protein kinase 10 (Homo sapiens, UniProt P53779); assay: Inhibition of JNK3 by nonradioactive JNK3 assay
# Mitogen-activated protein kinase 10, sequence (P53779 whole entry): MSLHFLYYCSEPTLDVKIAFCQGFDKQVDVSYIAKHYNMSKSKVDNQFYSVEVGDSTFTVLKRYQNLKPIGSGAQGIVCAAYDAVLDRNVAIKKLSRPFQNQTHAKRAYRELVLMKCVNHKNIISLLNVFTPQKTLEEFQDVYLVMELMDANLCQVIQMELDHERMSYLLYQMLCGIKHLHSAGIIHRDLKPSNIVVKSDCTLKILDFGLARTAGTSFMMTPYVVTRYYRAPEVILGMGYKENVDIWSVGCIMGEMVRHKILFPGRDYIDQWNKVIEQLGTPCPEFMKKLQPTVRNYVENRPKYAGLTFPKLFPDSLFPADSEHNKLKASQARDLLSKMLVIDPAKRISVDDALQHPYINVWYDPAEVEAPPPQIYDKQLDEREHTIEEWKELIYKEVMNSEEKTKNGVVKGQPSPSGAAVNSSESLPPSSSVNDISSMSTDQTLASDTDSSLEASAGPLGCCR
# T1 sequence (Q16539 whole entry): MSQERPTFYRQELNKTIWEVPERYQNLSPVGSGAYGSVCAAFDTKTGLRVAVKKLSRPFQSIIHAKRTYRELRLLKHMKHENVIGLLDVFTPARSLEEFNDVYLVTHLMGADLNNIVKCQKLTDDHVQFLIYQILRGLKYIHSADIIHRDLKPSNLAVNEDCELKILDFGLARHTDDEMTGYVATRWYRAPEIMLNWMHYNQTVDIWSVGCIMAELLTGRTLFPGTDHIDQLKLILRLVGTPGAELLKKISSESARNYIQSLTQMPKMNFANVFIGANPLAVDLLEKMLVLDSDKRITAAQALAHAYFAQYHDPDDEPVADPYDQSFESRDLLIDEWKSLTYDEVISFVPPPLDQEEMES
SMILES,IC50 [1] [nM],also measured
COc1ccc2nc(-c3ccc(F)cc3)c(-c3ccncc3)nc2c1,–,inhibition [2]: 33%
CC(C)[C@@H](C)Nc1cc(-c2nc3ccccc3nc2-c2ccc(F)cc2)ccn1,1590,–
Fc1ccc(-c2nc3cc(Cl)c(Cl)cc3nc2-c2ccnc(NCc3ccccc3)c2)cc1,–,inhibition [2]: 37%
C[C@@H](Nc1cc(-c2nc3ccccc3nc2-c2ccc(F)cc2)ccn1)c1ccccc1,4790,–
COc1ccc2nc(-c3ccncc3)c(-c3ccc(F)cc3)nc2c1,6140,–
Fc1ccc(-c2nc3ncccc3nc2-c2ccncc2)cc1,3190,–
O[C@H]1CC[C@H](Nc2cc(-c3nc4cc(Cl)c(Cl)cc4nc3-c3ccc(F)cc3)ccn2)CC1,608,–
CC(C)[C@H](C)Nc1cc(-c2nc3ccccc3nc2-c2ccc(F)cc2)ccn1,576,–
Fc1ccc(-c2nc3cc(Cl)c(Cl)cc3nc2-c2ccncc2)cc1,–,inhibition [2]: 39%
Fc1ccc(-c2nc3ccccc3nc2-c2ccncc2)cc1,3150,–
CC(C)C(C)Nc1cc(-c2nc3ccccc3nc2-c2ccc(F)cc2)ccn1 (stereo not given),790,–
Fc1ccc(-c2nc3cccnc3nc2-c2ccncc2)cc1,–,inhibition [2]: 46%
CC(C)CNc1cc(-c2nc3ccccc3nc2-c2ccc(F)cc2)ccn1,642,–
CC(C)C(C)Nc1cc(-c2nc3cc(Cl)c(Cl)cc3nc2-c2ccc(F)cc2)ccn1 (stereo not given),9460,–
Cc1cc2nc(-c3ccncc3)c(-c3ccc(F)cc3)nc2cc1C,3700,–
CCC(C)Nc1cc(-c2nc3cc(C)c(C)cc3nc2-c2ccc(F)cc2)ccn1 (stereo not given),595,–
Fc1ccc(-c2nc3ccccc3nc2-c2ccnc(NCc3ccccc3)c2)cc1,–,inhibition [2]: 9%
Cc1cc2nc(-c3ccc(F)cc3)c(-c3ccnc(NC(C)C(C)C)c3)nc2cc1C (stereo not given),1380,–
Cc1cc2nc(-c3ccc(F)cc3)c(-c3ccnc(NCc4ccccc4)c3)nc2cc1C,1530,–
CC(Nc1cc(-c2nc3ccccc3nc2-c2ccc(F)cc2)ccn1)c1ccccc1 (stereo not given),720,–

# Now from value to molecule, other results behind:
IC50 [1] [nM],SMILES,also measured
38,CC(C)Nc1cc(-c2nc3cccnc3nc2-c2ccc(F)cc2)ccn1,–
81,CC(C)Nc1cc(-c2nc3ccccc3nc2-c2ccc(F)cc2)ccn1,IC50 [3]: 3950 nM
333,CC(C)Nc1cc(-c2nc3ncccc3nc2-c2ccc(F)cc2)ccn1,–
431,C[C@H](Nc1cc(-c2nc3ccccc3nc2-c2ccc(F)cc2)ccn1)c1ccccc1,–
238,Cc1cc2nc(-c3ccc(F)cc3)c(-c3ccnc(NC(C)C)c3)nc2cc1C,–
259,Cc1cc2nc(-c3ccc(F)cc3)c(-c3ccnc(N[C@H]4CC[C@H](O)CC4)c3)nc2cc1C,–
114,CCC(C)Nc1cc(-c2nc3ccccc3nc2-c2ccc(F)cc2)ccn1 (stereo not given),–
412,CC(C)Nc1cc(-c2nc3cc(Cl)c(Cl)cc3nc2-c2ccc(F)cc2)ccn1,–
211,O[C@H]1CC[C@H](Nc2cc(-c3nc4ccccc4nc3-c3ccc(F)cc3)ccn2)CC1,–
